In brackets after ≈: the same amount, converted by molar mass. Where two headings read alike, the source gives them in different places.
Tests used:
Format in all cases: cell-based
[1] = test system: Enterococcus faecalis NCTC12201 strain (vancomycin-resistant Enterococcus: VRE); test: MIC for Enterococcus faecalis NCTC12201 strain (VRE); conditions: read-out: MIC Enterococcus faecalis NCTC 12201 (VRE)
[2] = test system: Staphylococcus aureus MRSA No. 17 (methicillin-resistant Staphylococcus aureus: MRSA); test: MIC for Staphylococcus aureus MRSA No. 17; conditions: read-out: MIC Straphyrococcus aureus MRSA No. 17 (MRSA)
[3] = test system: Clostridium perfringens PB6K strain; test: microbe, parasite or virus in culture; conditions: CD medium, 37° C. overnight, 10% CO2-containing anaerobic conditions; for MIC: Clostridium perfringens, PB6KSTRAIN, read-out: MIC Clostridium perfringens PB6K, PB6K strain
[4] = test system: Staphylococcus aureus Smith strain; test: MIC for Staphylococcus aureus Smith strain; conditions: read-out: MIC Straphyrococcus aureus Smith
[5] = test system: Escherichia coli K-12 strain; test: MIC for Escherichia coli K-12 strain; conditions: for MIC: Escherichia coli, K12STRAIN, read-out: MIC Escherichia coli K12
[6] = test system: Staphylococcus aureus 209P strain; test: MIC for Staphylococcus aureus 209P strain; conditions: for MIC: Staphylococcus aureus, read-out: MIC Straphyrococcus aureus 209P
[7] = test system: Clostridium difficile JCM1296 strain; test: microbe, parasite or virus in culture; conditions: for MIC: Clostridioides difficile, JCM1296, read-out: MIC Clostridium difficile JCM1296
[8] = test system: Enterococcus faecalis 5038 strain; test: MIC for Enterococcus faecalis 5038 strain; conditions: read-out: MIC Enterococcus faecalis 5038
[9] = test system: Escherichia coli BE1121 strain; test: MIC for Escherichia coli BE1121 strain; conditions: for MIC: Escherichia coli, BE1121STRAIN, read-out: MIC Escherichia coli BE1121
[10] = NCTC12201 strain (VRE), Heart Infusion Broth medium, 37° C. overnight, turbidity
[11] = MRSA No. 17, regular bouillon medium, 37° C. overnight, turbidity
[12] = Smith strain, regular bouillon medium, 37° C. overnight, turbidity
[13] = K-12 strain, regular bouillon medium, 37° C. overnight, turbidity
[14] = 209P strain, regular bouillon medium, 37° C. overnight, turbidity
[15] = 5038 strain, Heart Infusion Broth medium, 37° C. overnight, turbidity
[16] = BE1121 strain, regular bouillon medium, 37° C. overnight, turbidity

| SMILES | MIC [1, 10] | MIC [2, 11] | MIC [3] | MIC [4, 12] | MIC [5, 13] | MIC [6, 14] | MIC [7] | MIC [8, 15] | MIC [9, 16] | MIC [1] | MIC ([2]; MRSA) | MIC [4] | MIC ([8]; 5038STRAIN) | other results |
| --- | --- | --- | --- | --- | --- | --- | --- | --- | --- | --- | --- | --- | --- | --- |
| O=C(Nc1ccccc1)N1C(=O)C(=C(O)CCCCCCCCCBr)c2ccccc21 [A025, N-(phenylaminocarbonyl)-3-(10-bromodecanoyl)-2-oxyindole] | 0.5 mg/L (≈ 1.03 µM) | 256 mg/L (≈ 527 µM) | 1 mg/L (≈ 2.06 µM) | 2 mg/L (≈ 4.12 µM) | 256 mg/L (≈ 527 µM) | 256 mg/L (≈ 527 µM) | 0.5 mg/L (≈ 1.03 µM) | 0.5 mg/L (≈ 1.03 µM) | 256 mg/L (≈ 527 µM) |  |  |  |  |  |
| CCCCCCCCCC(O)=C1C(=O)N(C(=O)Nc2ccc(OC(F)(F)F)cc2)c2ccccc21 [A053, N-(4-(trifluoromethoxy)phenylaminocarbonyl)-3-decanoyl-2-oxyindole] | 128 mg/L (≈ 261 µM) | 256 mg/L (≈ 522 µM) | 32 mg/L (≈ 65.2 µM) | 256 mg/L (≈ 522 µM) | 128 mg/L (≈ 261 µM) | 256 mg/L (≈ 522 µM) | 16 mg/L (≈ 32.6 µM) | 128 mg/L (≈ 261 µM) | 128 mg/L (≈ 261 µM) |  |  |  |  |  |
| CCCCCCCCCCOCC(O)=C1C(=O)N(C(=O)Nc2ccccc2)c2ccccc21 [A019, N-(phenylaminocarbonyl)-3-decyloxyacetyl-2-oxyindole] | 4 mg/L (≈ 8.88 µM) | 256 mg/L (≈ 568 µM) | 2 mg/L (≈ 4.44 µM) | 4 mg/L (≈ 8.88 µM) | 256 mg/L (≈ 568 µM) | 256 mg/L (≈ 568 µM) | 0.5 mg/L (≈ 1.11 µM) | 1 mg/L (≈ 2.22 µM) | 128 mg/L (≈ 284 µM) |  |  |  |  |  |
| CCCCCCCCCC(=O)N1C(=O)C(=C(O)c2ccc(Cl)cc2)c2ccccc21 [A060, N-decanoyl-3-(4-chlorobenzoyl)-2-oxyindole] |  |  | 1 mg/L (≈ 2.35 µM) |  | 128 mg/L (≈ 301 µM) | 64 mg/L (≈ 150 µM) | 0.5 mg/L (≈ 1.17 µM) |  | 128 mg/L (≈ 301 µM) | 1 mg/L (≈ 2.35 µM) | 16 mg/L (≈ 37.6 µM) | 1 mg/L (≈ 2.35 µM) | 1 mg/L (≈ 2.35 µM) |  |
| CCCCCCCCCC(O)=C1C(=O)Nc2cc(Cl)ccc21 [A002, 3-decanoyl-6-chloro-2-oxyindole] | 15 mg/L (≈ 46.6 µM) | 16 mg/L (≈ 49.7 µM) | 32 mg/L (≈ 99.4 µM) | 16 mg/L (≈ 49.7 µM) |  |  | 32 mg/L (≈ 99.4 µM) | 16 mg/L (≈ 49.7 µM) |  |  |  |  |  | MIC [5]: 128 mg/L (≈ 398 µM); MIC ([6]; 209P): 16 mg/L (≈ 49.7 µM); MIC [9]: 128 mg/L (≈ 398 µM) |
| CCCCC1CCC(C(=O)c2c(O)c3cc(F)ccc3oc2=O)CC1 (stereo not drawn) [B009, 3-(4-butylcyclohexylcarbonyl)-6-fluoro-4-hydroxycoumarin] |  |  | 1 mg/L (≈ 2.89 µM) |  | 256 mg/L (≈ 739 µM) | 1 mg/L (≈ 2.89 µM) | 0.25 mg/L (≈ 0.722 µM) |  | 4 mg/L (≈ 11.5 µM) | 0.5 mg/L (≈ 1.44 µM) | 1 mg/L (≈ 2.89 µM) | 0.5 mg/L (≈ 1.44 µM) | 0.5 mg/L (≈ 1.44 µM) |  |
| CCCCC1CCC(C(O)=C2C(=O)N(C(C)=O)c3ccccc32)CC1 (stereo not drawn) [A010, N-acetyl-3-(4-butylcyclohexylcarbonyl)-2-oxyindole] | 0.5 mg/L (≈ 1.46 µM) | 1 mg/L (≈ 2.93 µM) | 1 mg/L (≈ 2.93 µM) | 0.5 mg/L (≈ 1.46 µM) | 256 mg/L (≈ 750 µM) | 2 mg/L (≈ 5.86 µM) | 0.25 mg/L (≈ 0.732 µM) | 0.5 mg/L (≈ 1.46 µM) | 256 mg/L (≈ 750 µM) |  |  |  |  |  |
| CCCCCCCCCCOCC(O)=C1C(=O)N(C(C)=O)c2ccc(Br)cc21 [A029, N-acetyl-5-bromo-3-decyloxyacetyl-2-oxyindole] |  | 128 mg/L (≈ 283 µM) | < 0.125 mg/L | 0.5 mg/L (≈ 1.11 µM) | 128 mg/L (≈ 283 µM) | 128 mg/L (≈ 283 µM) | < 0.125 mg/L | 0.25 mg/L (≈ 0.553 µM) | 128 mg/L (≈ 283 µM) | < 0.125 mg/L |  |  |  |  |
| CCCCCCCCCCSCC(O)=C1C(=O)N(C(=O)Nc2ccccc2)c2ccc(F)cc21 [A037, N-(phenylaminocarbonyl)-3-decylthioacetyl-5-fluoro-2-oxyindole] | 0.5 mg/L (≈ 1.03 µM) | 2 mg/L (≈ 4.13 µM) | 1 mg/L (≈ 2.06 µM) | 0.25 mg/L (≈ 0.516 µM) | 256 mg/L (≈ 528 µM) | 2 mg/L (≈ 4.13 µM) | 0.5 mg/L (≈ 1.03 µM) | 0.5 mg/L (≈ 1.03 µM) | 256 mg/L (≈ 528 µM) |  |  |  |  |  |
| CCCCCCCCCC(O)=C1C(=O)N(C(=O)Nc2ccccc2)c2ccc(Br)cc21 [A033, N-(phenylaminocarbonyl)-5-bromo-3-decanoyl-2-oxyindole] | 256 mg/L (≈ 527 µM) | 256 mg/L (≈ 527 µM) | 0.5 mg/L (≈ 1.03 µM) | 256 mg/L (≈ 527 µM) | 256 mg/L (≈ 527 µM) | 256 mg/L (≈ 527 µM) | 0.5 mg/L (≈ 1.03 µM) | 256 mg/L (≈ 527 µM) | 128 mg/L (≈ 264 µM) |  |  |  |  |  |
| CCCCCCCCCC(=O)N1C(=O)C(=C(O)c2ccc(F)cc2)c2ccccc21 [A061, N-decanoyl-3-(4-fluorobenzoyl)-2-oxyindole] |  |  | 2 mg/L (≈ 4.88 µM) |  |  |  |  |  |  | 4 mg/L (≈ 9.77 µM) | 64 mg/L (≈ 156 µM) | 2 mg/L (≈ 4.88 µM) | 4 mg/L (≈ 9.77 µM) | MIC [5]: 128 mg/L (≈ 313 µM); MIC ([6]; 209P): 128 mg/L (≈ 313 µM); MIC [9]: 128 mg/L (≈ 313 µM) |
| CCCCCCCCCC(O)=C1C(=O)Nc2ccccc21 [A001, 3-decanoyl-2-oxyindole] | 16 mg/L (≈ 55.7 µM) | 32 mg/L (≈ 111 µM) |  | 32 mg/L (≈ 111 µM) | 256 mg/L (≈ 891 µM) | 16 mg/L (≈ 55.7 µM) |  | 16 mg/L (≈ 55.7 µM) | 256 mg/L (≈ 891 µM) |  |  |  |  |  |
| CCCCCCCCCC(=O)c1c(O)c2cc(Cl)ccc2oc1=O [B003, 6-chloro-3-decanoyl-4-hydroxycoumarin] |  |  | 0.25 mg/L (≈ 0.713 µM) |  | 256 mg/L (≈ 730 µM) | 2 mg/L (≈ 5.7 µM) |  |  | 256 mg/L (≈ 730 µM) | 0.25 mg/L (≈ 0.713 µM) | 2 mg/L (≈ 5.7 µM) | 0.5 mg/L (≈ 1.43 µM) | 0.5 mg/L (≈ 1.43 µM) |  |
| CCCCCCCCCC(=O)c1c(O)c2cc(F)ccc2oc1=O [B004, 3-decanoyl-6-fluoro-4-hydroxycoumarin] |  |  | 0.25 mg/L (≈ 0.748 µM) |  | 256 mg/L (≈ 766 µM) | 1 mg/L (≈ 2.99 µM) |  |  | 2 mg/L (≈ 5.98 µM) | 0.25 mg/L (≈ 0.748 µM) | 1 mg/L (≈ 2.99 µM) | 0.25 mg/L (≈ 0.748 µM) | 0.5 mg/L (≈ 1.5 µM) |  |
| CCCCCCCCCCOCC(O)=C1C(=O)N(C(=O)OC(C)(C)C)c2cc(Cl)ccc21 [A056, N-Boc-6-chloro-3-decyloxyacetyl-2-oxyindole] |  |  |  |  |  |  |  |  |  |  |  |  |  | MIC Clostridium perfringens PB6K ([3]; PB6K strain): 0.5 mg/L (≈ 1.07 µM); MIC Escherichia coli K12 [5, 13]: 256 mg/L (≈ 549 µM); MIC Straphyrococcus aureus 209P [6, 14]: 256 mg/L (≈ 549 µM); MIC Clostridium difficile JCM1296 [7]: 4 mg/L (≈ 8.58 µM); MIC Escherichia coli BE1121 [9, 16]: 256 mg/L (≈ 549 µM) |
